Measured values as given in patent US6603023B2 (priority 1996, dated 2003).
Values joined by “and” are separate entries in the source; they are usually repeats but may differ in a detail not shown here. Identical values can stand only once. Like-named read-outs stand apart in the source and are kept apart here.

Tests used:
CCRF-CEM/VBL100 = test: cells; type: cell-based, human
Procedure: (§1) The drug-resistant cell lines were continuously cultured in the presence of the selecting agent, AD, DX, VBL or VM to maintain the drug resistant phenotypes. […] All cells were cultured in RPMI 1640-10% FBS at 37° C. 5% CO2 (see below).
(§2) The cells were cultured at an initial density of 5×10^4 cells/mL. They were maintained in a 5% CO2-humidified atmosphere at 37° C. in RPMI-1640 medium (GIBCO-BRL, Gaithersburg, Md.) containing penicillin (100 U/mL), streptomycin ([…]) (GIBCO-BRL) and 10% heat inactivate fetal bovine serum. Culture for cell suspension (such as for CCRF-CEM, P388 and sublines), were performed by the XTT-microculture tetrazonium method (Scudiero, D. A. et al., Cancer Res. 1988, 48, 4827-4833) in duplicate in 96-well microtiter plates.
(§3) 2′,3′-Bis(methoxy-4-nitro-5-sufophenyl)-5-[(phenylamino)carbonyl]2H-tetrazolium hyudroxide (XTT) was prepared at 1 mg/mL in prewarmed (37° C.) medium without serum. Phenazine methosulfate (PMS) and fresh XTT were mixed together to obtain 0.025 mM PMS-XTT solution (25 μL of the stock 5 mM PMS was added per 5 mL of 1 mg/mL XTT). Following a 72 h incubation, 50 μL of the assay aliquots were added to each well of the cell culture. After incubation at 37° C. for 4 h, absorbance at 450 nm and 630 nm was measured with a microplate reader (EL340, Bio-Tek Instruments, Inc., Winooski, Vt.).

CCRF-CEM/VM1 = test: cells; type: cell-based, human
Procedure: as §1, §2, §3

[1] = system: CCRF-CEM human T-cell acute lymphoblastic leukemia cell line; test: XTT cytotoxicity (cell growth inhibition), CCRF-CEM
Procedure: (§4) The DC-3F hamster lung fibroblast cell line and its actinomycin D-selected sublines (DC-3F/ADII and DC-3F/ADX) were obtained from the Memorial Sloan-Kettering Cancer Center (MSKCC).
as §1, §2, §3

DC-3F/ADX = test: cells; type: cell-based, hamster; conditions: Table 3; read-out: IC50
Procedure: as §4, §1
(§5) The cytotoxicity of the drug toward the monolayer cell cultures (such as DC-3F, MCF-7, SK-N-As and sublines) was determined in 96-well microtiter plates by the SRB method as described by Skehan and co-workers (Skehan, P., et al., J. Natl. Cancer Inst. 1990, 82, 1107-1112) for measuring the cellular protein content. Cultures were fixed with trichloroacetic acid and then stained for 30 min with 0.4% suforhodamine B dissolved in 1% acetic acid. Unbound dye was removed by acetic acid washes, and the protein-bound dye was extracted with an unbuffered Tris base (tris(hydroxy-methyl)aminomethane) for determination of absorbance at 570 nm in a 96-well microtiter plate reader. The experiments were carried out in duplicate. Each run entailed six to seven concentrations of the tested drugs. Data were analyzed with the median-effect plot (Chou, T.-C. & Talalay, P. T. (1984) Adv. Enzyme Regul. 22, 27-55) using a previously described computer program (Chou, J., & Chou T.-C. 1987, Dose-effect analysis with microcomputers: Quantitation of ED50, synergism, antagonism, low-dose risk, reception-ligand binding and enzyme kinetics, IBM-PC software and manual, Biosoft, Cambridge, U.K.).
(§6) Concerning Table 3, experiments were carried out using the cell lines DC-3F (parent hamster lung cells), DC-3F/ADII (moderate multidrug-resistant (MDR) cells) and DC-3F/ADX (very strong MDR cells).

DC-3F/ADII = test: SRB cytotoxicity, DC-3F/ADII; type: cell-based, hamster; conditions: Table 3; read-out: IC50
Procedure: as §4, §1, §5, §6

[2] = system: DC-3F hamster lung fibroblast cell line; test: SRB cytotoxicity, DC-3F; type: cell-based; conditions: Table 3; read-out: IC50
Procedure: as §4, §1, §5

[3] = Table 6, single determinations, read-out: IC50
[4] = Table 7, CEM/VBL, read-out: IC50
[5] = Table 6, single determinations, listed as 4, read-out: IC50
[6] = Table 6, read-out: IC50 (mean ± of determinations, in parentheses)

Structure (SMILES)	IC50 (CCRF-CEM/VBL100; [3])	IC50 (CCRF-CEM/VBL100; [4]) [µM]	IC50 (CCRF-CEM/VM1; [3])	IC50 ([1]; Table 6, single determinations)	IC50 ([1]; Table 7, CEM) [µM]	also measured
CC(=Cc1csc(C)n1)C1CC2OC2CCCC(C)C(O)C(C)C(=O)C(C)(C)C(O)CC(=O)O1 (stereo not drawn) [#5]	35.2 µM	35.2	98 µM	> 20 µM	> 20	
CC(=Cc1csc(C)n1)C1CC=CCCCC(C)C(O)C(C)C(=O)C(C)(C)C(O)CC(=O)O1 (stereo not drawn) [#4]						IC50 (CCRF-CEM/VBL100; [5]): 43 µM; IC50 (CCRF-CEM/VBL100; Table 7, CEM/VBL, listed as 4, read-out: IC50): 43.8 µM; IC50 (CCRF-CEM/VM1; [5]): 2.76 µM; IC50 ([1]; Table 6, single determinations, listed as 4): 2.12 µM; IC50 ([1]; Table 7, CEM, listed as 4): 2.1 µM
CC1=CCC(C(C)=Cc2csc(C)n2)OC(=O)CC(O)C(C)(C)C(=O)C(C)C(O)C(C)CCC1 (stereo not drawn) [#11]	0.262 µM	0.262	0.094 µM	0.09 µM	0.09	IC50 (CCRF-CEM/VBL100; read-out: IC50): 0.262 µM
CC(=Cc1csc(C)n1)C1CC2OC2CCCCC(O)C(C)C(=O)C(C)(C)C(O)CC(=O)O1 (mixture of isomers) [8-desmethyl Mix-cis Epo]	5.95 µM		2.55 µM	0.96 µM		
C/C(=C\c1csc(C)n1)C1CC2OC2CCCCC(O)C(C)C(=O)C(C)(C)C(O)CC(=O)O1 (stereo not drawn) [#15, 8-Desmethylepothilone A]	2.47 µM	2.47	0.764 µM	0.439 µM	0.439	IC50 (CCRF-CEM/VBL100; Table 1, XTT, read-out: IC50): 2.47 µM; IC50 (CCRF-CEM/VM1; Table 1, XTT, read-out: IC50): 0.764 µM; IC50 [1]: 0.44 µM; Rel. Value (potency relative to Epo B) ([1]; CCRF-CEM leukemic cells): 1/1257; IC50 ([1]; Table 1, XTT): 0.439 µM; times less active than corresponding epothilone A counterpart (cytotoxicity) ([1]; see Table 1): approximately 200 times
CC(=Cc1csc(C)n1)C(O)CC=CCCCC(C)C(O)C(C)C(=O)C(C)(C)C(O)CC(=O)O (stereo not drawn) [#12]	> 5 µM	> 5	> 5 µM	0.794 µM	0.794	
C/C(=C\c1csc(C)n1)[C@@H]1C[C@@H]2O[C@@H]2CCC[C@H](C)[C@H](O)[C@@H](C)C(=O)C(C)(C)[C@@H](O)CC(=O)O1 [EPOTHILONE A NATURAL, epothilone A]	0.0211 µM and 0.0189 µM		0.006 µM and 0.00625 µM	0.0024 µM and 0.0031 µM		IC50 (CCRF-CEM/VBL100; Table 2, CCRF-CEM/VLB, read-out: IC50): 0.0272 µM; relative resistance (fold) vs parent cell line (CCRF-CEM/VBL100; Table 6): (7.4X); IC50 (CCRF-CEM/VBL100; [6]): 0.02 µM; IC50 (CCRF-CEM/VM1; Table 2, CCR-CEM/VM-1, read-out: IC50): 0.0034 µM; relative resistance (fold) vs parent cell line (CCRF-CEM/VM1; Table 6): (2.3X); IC50 (CCRF-CEM/VM1; [6]): 0.00613 µM; IC50 (DC-3F/ADX): 0.0533 µM; IC50 (DC-3F/ADII): 0.0124 µM; IC50 ([1]; Table 2): 0.0035 µM; IC50 ([1]; read-out: IC50 (mean ± of determinations, in parentheses), Table 6): 0.0027 µM; IC50 [2]: 0.00368 µM
C=CC[C@H](OC(=O)C[C@H](O)C(C)(C)C(=O)[C@H](C)[C@@H](O)[C@@H](C)CCCC(=C)C)/C(C)=C/c1csc(C)n1 [#13]	5.63 µM	5.63	14.5 µM	11.5 µM	11.5	
